Laboratory results taken from the supplement of paper PMC12819154, “High-throughput peptide-centric local stability assay extends protein–ligand identification to membrane proteins, tissues and bacteria” (Nature Structural & Molecular Biology, 2025).

Columns and labels:
Assay in all cases: pEC50 of peptide local stability change
UniProt P21345 = details: peptide sequence: EVLGKFDK; direction: stabilized; replicate design: treated separately
Summary of the method: (§1)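 In four 50 µl replicates, desalted MgCl2-supplemented E. coli K-12 BW25113 lysate (1.2 mg ml^−1) received seven doses of ATP (10 µM–10 mM) or water for 30 min at 25 °C, followed by a 4 min trypsin digest at 22 °C and DIA LC–MS/MS. For each replicate, treated/control peptide ratios were fitted to a four-parameter log-logistic model. Only fits with R^2 over 0.9 in at least three replicates and a coefficient of variation of at most 0.25 were kept. The value given is the replicate mean pEC50.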

UniProt P31808 = details: peptide sequence: TGMTFDAQPGR; direction: stabilized; replicate design: treated separately
Summary of the method: as §1

UniProt P37647 = details: peptide sequence: GHLTASTVIQYR; direction: stabilized; replicate design: treated separately
Summary of the method: as §1

UniProt P76192 = details: peptide sequence: VLPAEEYAEIR; direction: stabilized; replicate design: treated separately
Summary of the method: as §1

UniProt P13009 = details: peptide sequence: TPPVTLEAAR; direction: stabilized; replicate design: treated separately
Summary of the method: as §1

UniProt P11664 = details: peptide sequence: GAPETFDVAK; direction: stabilized; replicate design: treated separately
Summary of the method: as §1

UniProt P77485 = details: peptide sequence: GTVAVTSDAR; direction: stabilized; replicate design: treated separately
Summary of the method: as §1

UniProt P13458 = details: peptide sequence: LESTFAVK; direction: stabilized; replicate design: treated separately
Summary of the method: as §1

UniProt P00954 = details: peptide sequence: FRNDEAFLQQVMK; direction: stabilized; replicate design: treated separately
Summary of the method: as §1

UniProt P22188 = details: peptide sequence: LWCVFGCGGDRDK; direction: stabilized; replicate design: treated separately
Summary of the method: as §1

UniProt P07109 = details: peptide sequence: HVSTHVIFLHQGK; direction: stabilized; replicate design: treated separately
Summary of the method: as §1

UniProt P07109, sequence (P07109 whole entry): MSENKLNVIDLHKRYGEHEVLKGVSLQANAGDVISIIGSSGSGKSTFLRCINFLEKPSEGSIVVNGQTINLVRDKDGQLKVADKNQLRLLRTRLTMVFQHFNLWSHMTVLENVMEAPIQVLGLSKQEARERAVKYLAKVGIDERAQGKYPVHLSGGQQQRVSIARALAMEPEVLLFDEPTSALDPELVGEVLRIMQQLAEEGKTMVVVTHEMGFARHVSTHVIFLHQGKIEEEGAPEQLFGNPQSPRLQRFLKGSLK
UniProt P11664, sequence (P11664 whole entry): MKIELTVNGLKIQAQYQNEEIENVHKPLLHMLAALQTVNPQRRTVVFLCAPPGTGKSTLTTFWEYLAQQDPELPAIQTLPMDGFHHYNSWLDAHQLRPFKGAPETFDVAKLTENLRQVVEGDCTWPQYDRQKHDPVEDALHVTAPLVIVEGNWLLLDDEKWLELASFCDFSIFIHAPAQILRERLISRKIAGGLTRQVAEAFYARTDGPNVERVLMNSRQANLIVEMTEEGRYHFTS
UniProt P77485, sequence (P77485 whole entry): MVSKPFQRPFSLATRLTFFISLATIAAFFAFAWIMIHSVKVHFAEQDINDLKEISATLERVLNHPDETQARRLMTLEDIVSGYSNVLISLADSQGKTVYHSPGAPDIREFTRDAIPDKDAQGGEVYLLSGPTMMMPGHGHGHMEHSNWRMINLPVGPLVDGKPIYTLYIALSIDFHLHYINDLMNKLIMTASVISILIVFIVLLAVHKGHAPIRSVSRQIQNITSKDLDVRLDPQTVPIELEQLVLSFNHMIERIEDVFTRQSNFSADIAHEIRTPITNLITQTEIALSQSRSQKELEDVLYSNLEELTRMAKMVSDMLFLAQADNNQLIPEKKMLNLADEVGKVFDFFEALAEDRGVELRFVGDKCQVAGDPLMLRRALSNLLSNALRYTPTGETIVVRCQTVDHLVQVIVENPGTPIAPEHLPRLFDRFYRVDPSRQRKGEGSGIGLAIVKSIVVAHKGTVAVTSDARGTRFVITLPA
UniProt P13458, sequence (P13458 whole entry): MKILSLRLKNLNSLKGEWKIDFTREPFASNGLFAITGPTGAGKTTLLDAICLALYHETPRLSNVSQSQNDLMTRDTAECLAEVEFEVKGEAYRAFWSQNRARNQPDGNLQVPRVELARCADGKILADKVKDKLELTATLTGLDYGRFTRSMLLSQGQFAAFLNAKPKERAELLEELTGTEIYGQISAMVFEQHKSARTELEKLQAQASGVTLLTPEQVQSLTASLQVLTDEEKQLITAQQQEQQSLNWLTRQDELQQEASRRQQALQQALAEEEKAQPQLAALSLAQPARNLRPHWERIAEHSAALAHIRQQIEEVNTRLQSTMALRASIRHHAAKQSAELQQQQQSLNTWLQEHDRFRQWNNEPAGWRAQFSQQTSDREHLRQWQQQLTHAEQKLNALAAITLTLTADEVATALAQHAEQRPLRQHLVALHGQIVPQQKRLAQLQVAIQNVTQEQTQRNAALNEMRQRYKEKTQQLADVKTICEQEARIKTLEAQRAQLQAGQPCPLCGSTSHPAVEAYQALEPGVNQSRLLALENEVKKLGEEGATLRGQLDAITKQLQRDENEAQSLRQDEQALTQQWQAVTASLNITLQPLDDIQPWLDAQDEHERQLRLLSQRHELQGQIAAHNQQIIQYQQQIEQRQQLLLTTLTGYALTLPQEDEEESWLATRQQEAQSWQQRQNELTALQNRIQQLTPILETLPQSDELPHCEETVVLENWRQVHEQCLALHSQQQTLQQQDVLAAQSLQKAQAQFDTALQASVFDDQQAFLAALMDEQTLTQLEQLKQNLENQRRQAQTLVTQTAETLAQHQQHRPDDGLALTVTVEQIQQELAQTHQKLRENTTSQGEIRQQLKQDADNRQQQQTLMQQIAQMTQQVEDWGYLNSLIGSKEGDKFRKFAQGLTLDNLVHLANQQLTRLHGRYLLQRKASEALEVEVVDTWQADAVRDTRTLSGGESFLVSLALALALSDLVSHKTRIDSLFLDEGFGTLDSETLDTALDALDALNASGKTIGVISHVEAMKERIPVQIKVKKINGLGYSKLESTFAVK
UniProt P21345, sequence (P21345 whole entry): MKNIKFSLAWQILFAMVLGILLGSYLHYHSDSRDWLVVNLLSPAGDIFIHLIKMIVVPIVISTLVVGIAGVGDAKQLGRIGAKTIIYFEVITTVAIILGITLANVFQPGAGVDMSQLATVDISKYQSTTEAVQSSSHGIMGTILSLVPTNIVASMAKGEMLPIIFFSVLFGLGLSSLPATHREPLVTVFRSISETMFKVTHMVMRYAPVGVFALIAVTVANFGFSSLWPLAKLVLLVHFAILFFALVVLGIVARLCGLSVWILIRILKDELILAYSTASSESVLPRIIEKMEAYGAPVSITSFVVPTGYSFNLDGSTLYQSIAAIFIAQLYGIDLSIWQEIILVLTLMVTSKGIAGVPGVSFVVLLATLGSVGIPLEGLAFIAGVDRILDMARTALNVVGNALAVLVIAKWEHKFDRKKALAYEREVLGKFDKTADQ
UniProt P22188, sequence (P22188 whole entry): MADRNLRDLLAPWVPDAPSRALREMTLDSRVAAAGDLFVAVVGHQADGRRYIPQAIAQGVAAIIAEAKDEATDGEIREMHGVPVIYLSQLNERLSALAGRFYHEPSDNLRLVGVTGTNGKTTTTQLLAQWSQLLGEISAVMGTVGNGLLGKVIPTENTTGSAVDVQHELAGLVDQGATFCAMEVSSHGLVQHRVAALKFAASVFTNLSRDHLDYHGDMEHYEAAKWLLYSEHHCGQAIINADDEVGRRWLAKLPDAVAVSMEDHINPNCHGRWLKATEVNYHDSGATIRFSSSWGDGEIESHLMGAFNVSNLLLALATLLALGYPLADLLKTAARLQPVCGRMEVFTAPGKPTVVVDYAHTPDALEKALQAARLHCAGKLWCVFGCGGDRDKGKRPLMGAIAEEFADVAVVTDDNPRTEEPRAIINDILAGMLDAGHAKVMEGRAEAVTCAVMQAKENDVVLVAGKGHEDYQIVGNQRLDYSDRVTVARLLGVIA
UniProt P13009, sequence (P13009 whole entry): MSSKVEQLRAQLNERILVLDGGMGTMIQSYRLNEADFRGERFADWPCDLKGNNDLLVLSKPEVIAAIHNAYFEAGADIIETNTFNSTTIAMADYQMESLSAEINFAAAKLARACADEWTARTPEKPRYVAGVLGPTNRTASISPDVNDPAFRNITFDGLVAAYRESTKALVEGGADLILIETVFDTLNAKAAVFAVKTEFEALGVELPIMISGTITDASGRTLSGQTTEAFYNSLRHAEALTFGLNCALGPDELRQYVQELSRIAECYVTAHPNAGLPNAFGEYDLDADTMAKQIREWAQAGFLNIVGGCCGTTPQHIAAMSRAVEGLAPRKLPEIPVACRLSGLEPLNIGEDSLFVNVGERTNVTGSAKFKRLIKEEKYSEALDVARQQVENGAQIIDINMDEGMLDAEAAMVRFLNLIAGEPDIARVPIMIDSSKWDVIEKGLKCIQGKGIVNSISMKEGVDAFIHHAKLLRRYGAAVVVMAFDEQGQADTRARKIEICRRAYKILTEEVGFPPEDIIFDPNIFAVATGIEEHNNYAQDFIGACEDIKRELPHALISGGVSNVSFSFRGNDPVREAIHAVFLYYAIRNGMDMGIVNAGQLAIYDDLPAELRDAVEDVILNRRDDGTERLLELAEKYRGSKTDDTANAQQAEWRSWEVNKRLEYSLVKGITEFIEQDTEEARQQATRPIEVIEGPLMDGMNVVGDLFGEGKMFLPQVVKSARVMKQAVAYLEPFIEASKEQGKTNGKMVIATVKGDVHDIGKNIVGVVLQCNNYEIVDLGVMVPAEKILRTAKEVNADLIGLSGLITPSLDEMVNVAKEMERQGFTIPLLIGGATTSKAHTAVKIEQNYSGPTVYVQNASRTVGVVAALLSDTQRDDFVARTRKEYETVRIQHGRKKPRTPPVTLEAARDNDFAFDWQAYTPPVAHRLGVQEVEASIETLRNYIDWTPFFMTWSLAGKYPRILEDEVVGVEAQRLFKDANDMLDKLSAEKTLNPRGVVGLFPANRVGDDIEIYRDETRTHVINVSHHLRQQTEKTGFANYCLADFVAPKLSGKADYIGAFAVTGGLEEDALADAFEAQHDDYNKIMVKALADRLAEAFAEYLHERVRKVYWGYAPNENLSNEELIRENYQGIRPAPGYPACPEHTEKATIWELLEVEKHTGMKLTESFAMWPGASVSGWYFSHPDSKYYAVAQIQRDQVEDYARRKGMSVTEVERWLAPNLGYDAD
UniProt P31808, sequence (P31808 whole entry): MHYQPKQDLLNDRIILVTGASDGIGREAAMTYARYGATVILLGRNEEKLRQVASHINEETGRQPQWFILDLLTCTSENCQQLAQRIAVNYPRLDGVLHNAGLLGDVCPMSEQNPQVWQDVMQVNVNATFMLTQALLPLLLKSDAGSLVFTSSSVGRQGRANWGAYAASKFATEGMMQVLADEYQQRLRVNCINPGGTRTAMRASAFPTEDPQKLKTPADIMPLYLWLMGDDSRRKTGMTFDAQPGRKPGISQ
UniProt P37647, sequence (P37647 whole entry): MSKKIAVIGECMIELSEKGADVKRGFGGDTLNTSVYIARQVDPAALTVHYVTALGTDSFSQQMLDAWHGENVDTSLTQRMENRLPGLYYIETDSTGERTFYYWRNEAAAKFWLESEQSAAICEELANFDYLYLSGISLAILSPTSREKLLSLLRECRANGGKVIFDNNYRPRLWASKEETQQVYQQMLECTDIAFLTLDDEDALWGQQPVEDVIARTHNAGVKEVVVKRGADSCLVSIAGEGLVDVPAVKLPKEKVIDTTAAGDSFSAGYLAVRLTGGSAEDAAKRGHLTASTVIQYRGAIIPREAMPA

Nc1ncnc2c1ncn2[C@@H]1O[C@H](COP(=O)(O)OP(=O)(O)OP(=O)(O)O)[C@@H](O)[C@H]1O [adenosine 5'-triphosphate]
pEC50 of peptide local stability change (UniProt P21345): 2.25
pEC50 of peptide local stability change (UniProt P31808): 2.09
pEC50 of peptide local stability change (UniProt P37647): 3.1
pEC50 of peptide local stability change (UniProt P76192): 3.75
pEC50 of peptide local stability change (UniProt P13009): 2.53
pEC50 of peptide local stability change (UniProt P11664): 3.03
pEC50 of peptide local stability change (UniProt P77485): 2.24
pEC50 of peptide local stability change (UniProt P13458): 2.9
pEC50 of peptide local stability change (UniProt P00954): 2.73
pEC50 of peptide local stability change (UniProt P22188): 3.89
pEC50 of peptide local stability change (UniProt P07109): 3.88
